Results taken from patent US20210315992A1, “ADJUVANT EFFECT OF THE TLR1/2 AGONIST DIPROVOCIM SYNERGIZES WITH CHECKPOINT-INHIBITING ANTIBODIES TO ELIMINATE DISEASE” (The Board of Regents of the University of Texas System, priority 2018, published 2021).

Assays:
mouse BMDC = experiment: IL-6 production by mouse BMDC (ELISA); type: cell-based; settings: 4 hours
Procedure: For murine BMDCs, bone morrow cells were cultured in Petri dishes in 10 ml DMEM cell culture medium containing 10 ng/ml of murine GM-CSF (R&D Systems). On day 3 of culture, this was replaced with fresh GM-CSF medium. Loosely adherent cells were transferred to a fresh Petri dish and cultured for an additional 4 d. Human PBMC were purchased from Stemcell Technologies. THP-1 (ATCC) cells were differentiated by treatment with 100 nM PMA (Sigma) in RPMI cell culture medium [RPMI containing 10% vol/vol FBS (Gemini Bio Products), 1% penicillin and streptomycin (Life Technologies)] for 24 hours. After that, cells were washed with PBS and cultured in fresh RPMI cell culture medium for 24 hours before use in studies.
(§1) Cells were seeded onto 96-well plates at 1×10^5 cells per well and stimulated with a Diprovocim (dissolved in DMSO, and final DMSO concentrations (0.2%) were kept constant in all experiments) for 4 h. Mouse TNF, IL-6, or IFN-β, or human TNF in the supernatants were measured by ELISA kits according to the manufacturer's instructions (eBioscience and PBL Assay Science). Pretreatment with 20 μg/ml anti-TLR1, anti-TLR2 or isotype control antibody (eBioscience) was for 1 hour. Unless otherwise indicated, mouse cells were from wild type C57BL/6J mice.

[1] = molecular target: T1, mouse TLR1/TLR2 heterodimer (Mus musculus, UniProt Q9EPQ1+Q9QUN7); experiment: TNF induction in peritoneal macrophages from mice deficient in TLR signaling components; type: cell-based; settings: 500 nM, 4 hours, vs C57BL/6J cells
T1 construct: endogenous in cells; host or cells: thioglycollate-elicited peritoneal macrophages of C57BL/6J mice (wild type and knockout/mutant genotypes)
T1 sequence (Q9EPQ1 26-795): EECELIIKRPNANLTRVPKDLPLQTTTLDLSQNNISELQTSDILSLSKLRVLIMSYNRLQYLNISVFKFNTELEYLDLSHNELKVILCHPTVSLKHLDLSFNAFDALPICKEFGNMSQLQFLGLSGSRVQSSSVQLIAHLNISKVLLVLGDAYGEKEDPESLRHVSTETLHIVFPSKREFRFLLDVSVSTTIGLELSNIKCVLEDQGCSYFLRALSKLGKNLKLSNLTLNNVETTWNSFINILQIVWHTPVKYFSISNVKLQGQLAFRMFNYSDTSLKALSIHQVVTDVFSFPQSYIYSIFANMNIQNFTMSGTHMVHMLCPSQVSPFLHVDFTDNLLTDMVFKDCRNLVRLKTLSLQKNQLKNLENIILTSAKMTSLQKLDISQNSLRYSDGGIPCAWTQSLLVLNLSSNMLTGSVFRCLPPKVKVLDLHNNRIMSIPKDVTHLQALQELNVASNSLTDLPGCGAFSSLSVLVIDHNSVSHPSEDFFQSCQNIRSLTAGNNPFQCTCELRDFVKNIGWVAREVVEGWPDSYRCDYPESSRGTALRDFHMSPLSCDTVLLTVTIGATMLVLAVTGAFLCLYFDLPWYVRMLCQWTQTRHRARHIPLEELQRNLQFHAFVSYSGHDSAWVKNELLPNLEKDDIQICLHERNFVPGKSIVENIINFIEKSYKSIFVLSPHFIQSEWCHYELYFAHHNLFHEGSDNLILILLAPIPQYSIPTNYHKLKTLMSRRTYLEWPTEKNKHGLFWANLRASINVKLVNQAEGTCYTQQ
T1 sequence (Q9QUN7 25-784): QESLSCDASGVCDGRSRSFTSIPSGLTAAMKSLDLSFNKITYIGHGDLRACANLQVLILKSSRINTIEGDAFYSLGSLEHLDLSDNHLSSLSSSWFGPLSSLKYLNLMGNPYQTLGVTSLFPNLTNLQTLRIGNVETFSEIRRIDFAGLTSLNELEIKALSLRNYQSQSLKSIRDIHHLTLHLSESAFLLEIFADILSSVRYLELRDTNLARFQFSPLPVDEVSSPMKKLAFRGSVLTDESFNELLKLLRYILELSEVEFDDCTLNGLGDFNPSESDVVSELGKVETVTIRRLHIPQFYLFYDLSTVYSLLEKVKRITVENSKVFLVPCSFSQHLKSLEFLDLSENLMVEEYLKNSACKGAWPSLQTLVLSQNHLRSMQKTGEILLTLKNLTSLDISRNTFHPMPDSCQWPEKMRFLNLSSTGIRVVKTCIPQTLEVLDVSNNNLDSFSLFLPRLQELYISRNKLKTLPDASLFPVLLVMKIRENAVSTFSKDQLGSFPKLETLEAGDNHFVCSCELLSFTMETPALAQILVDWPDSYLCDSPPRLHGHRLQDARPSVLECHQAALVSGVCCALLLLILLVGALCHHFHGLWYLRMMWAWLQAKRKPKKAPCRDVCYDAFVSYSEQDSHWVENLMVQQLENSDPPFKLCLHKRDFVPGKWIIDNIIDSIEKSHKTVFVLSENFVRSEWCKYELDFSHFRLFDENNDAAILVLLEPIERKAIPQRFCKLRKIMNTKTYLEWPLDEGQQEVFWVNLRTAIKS
Source text: (§2) C57BL/6J, Tlr2^−/−, Myd88^−/− and OT-I mice were purchased from The Jackson Laboratory. Ly96^−/− (MD-2^−/−) mice were from RIKEN BRC. Tlr4^1ps3/lps3, Tlr6^int/int, Tlr7^rsql/rsql, Tirapt^tor/tor, Ticam1^Lps2/Lps2, Ticam1^Lps2/Lps2/Irak4^otiose/otiose mice were generated on a pure C57BL/6J background by ENU mutagenesis and are described at http://mutagenetix.utsouthwestern.edu.
(§3) Tlr1^−/− mice were created by CRISPR/Cas 9 gene targeting. Female C57BL/6J mice were superovulated by injection of 6.5 U pregnant mare serum gonadotropin (PMSG; Millipore), followed by injection of 6.5 U human chorionic gonadotropin (hCG; Sigma-Aldrich) 48 hours later. The superovulated mice were subsequently mated overnight with C57BL/6J male mice. The following day, fertilized eggs were collected from the oviducts and in vitro-transcribed Cas9 mRNA (50 ng/μl) and Tlr1 small base-pairing guide RNA (50 ng/μl; 5′-[…]-3′; SEQ ID NO: XX) were injected into the cytoplasm or pronucleus of the embryos. […]
as §1, with “Pretreatment with 20 μg/ml anti-TLR1, anti-TLR2 or isotype control antibody (eBioscience) was for 1 hour. Unless otherwise indicated, mouse cells were from wild type C57BL/6J mice.” left out

[2] = system: mouse TLR1/TLR2 heterodimer; experiment: as above; type: cell-based; settings: 500 nM, 4 hours, vs C57BL/6J cells
Source text: as §2, §3
as §1, with “Pretreatment with 20 μg/ml anti-TLR1, anti-TLR2 or isotype control antibody (eBioscience) was for 1 hour. Unless otherwise indicated, mouse cells were from wild type C57BL/6J mice.” left out

B16-OVA melanoma = experiment: B16-OVA melanoma, pre-tumor treatment (immunization on day of tumor inoculation); type: in vivo, mouse
Procedure: FIG. 4A through FIG. 4J illustrate inhibition of B16-OVA tumor growth by pre- or post-tumor treatment with Diprovocim-adjuvanted tumor vaccination and checkpoint blockade. FIG. 4A provides a schematic of pre- and post-tumor treatment protocols. C57BL/6J mice (n=8 mice per treatment) were injected s.c. with 2×10^5 B16-OVA melanoma cells on day 0. For pre-tumor treatment, mice were immunized i.m. with OVA (100 μg) mixed with vehicle or Diprovocim (10 mg/kg) or alum (2 mg/kg) on the same day prior to tumor injection. Mice received a booster immunization seven days later in which anti-PD-L1 (200 μg) was administered on days 3, 6 and 9 after tumor inoculation by i.p. injection. For post-tumor treatment, initial immunization was on day 3 after tumor inoculation, with a booster seven days later. Anti-PD-L1 (200 μg) was administered on days 3, 6, 9, 12, and 15 after tumor inoculation by i.p. injection. FIG. 4B through FIG. 4F illustrate pre-tumor treatment results. Tumor volume (FIG. 4B and FIG. 4D) and percent mouse survival (survivors/total mice) (FIG. 4C and FIG. 4E). […] FIG. 4G through FIG. 4J illustrate a comparison of pre-tumor (FIG. 4G and FIG. 4H) vs. post-tumor treatment (FIG. 4I and FIG. 4J). Tumor volume (FIG. 4G and FIG. 4I) and percent mouse survival (survivors/total mice) (FIG. 4H and FIG. 4J) are shown. P values for tumor volume analysis apply to the final time point as indicated in graphs and were calculated by Student's t test. P values for survival analysis were calculated by Kaplan-Meier analysis. All results are representative of two independent studies.
C57BL/6J mice (n=8) were injected s.c. with 2×10^5 B16-OVA melanoma cells on day 0. Anti-PD-L1 (200 μg) or mouse IgG2a isotype control antibody was administered on days 3, 6 and 9 after tumor inoculation by i.p. injection. FIG. 8A is a graph of tumor volume versus time and FIG. 8B is a graph showing percent mouse survival (survivors/total mice) versus time. The control values in both plots are shown above those for the anti-PD-L1 values where the two values diverge. […] Results are representative of two independent studies.
B16-OVA cells (B16F10 melanoma cells stably expressing chicken ovalbumin) were grown in DMEM containing 10% vol/vol FBS. A total of 2×10^5 B16-OVA cells in 100 μL PBS were injected s.c. into the right flank of 8-12 week old male C57BL/6J mice to establish tumors (n=8 mice per group). For pretreatment, 10 mg/kg Diprovocim-1 or 2 mg/kg alum with or without OVA (100 μg) was injected i.m. into mice on the same day as tumor inoculation (day 0). Mice received a booster shot seven days after the first immunization. On day 3, 6 and 9, some groups were injected i.p. with 200 μg checkpoint inhibitor (anti-mPD-L1, BioXcell) in 100 μl saline.
Tumors were measured with a digital caliper (Fisher) and the tumor sizes were calculated using the following formula: volume=0.5×length×width^2. Mice were sacrificed when the tumor length or width reached 2 cm.

O=C(N[C@H]1C[C@@H]1c1ccccc1)[C@@H]1CN(C(=O)c2ccc(C(=O)N3C[C@@H](C(=O)N[C@H]4C[C@@H]4c4ccccc4)[C@H](C(=O)N[C@H]4C[C@@H]4c4ccccc4)C3)cc2)C[C@H]1C(=O)N[C@H]1C[C@@H]1c1ccccc1 [Diprovocim-1, (3S,3'S,4S,4'S)-1,1′-Terephthaloylbis(N^3,N^4-bis((1S,2R)-2-phenylcyclo-propyl)pyrrolidine-3,4-dicarboxamide)]
IL-6 production (mouse BMDC): induced IL-6 production
activity (TNF) in macrophages from MyD88-, TIRAP-, and IRAK4-deficient cells [1]: dramatically reduced
induction of TNF in TLR1- or TLR2-deficient macrophages [2]: completely absent
tumor growth or mouse survival (B16-OVA melanoma; Diprovocim alone (no OVA) combined with anti-PD-L1 treatment): no effect
effect on tumor growth, survival rate, and survival time compared with alum (B16-OVA melanoma; pre-tumor treatment): superior to that of alum
tumor growth rates and survival times compared with vehicle alone (B16-OVA melanoma; single agent, no anti-PD-L1, i.m. day 0 and booster day 7): similar
